# ChEMBL document CHEMBL5260815, “Profiling of in vitro activities of urea-based inhibitors against cysteine synthases from Mycobacterium tuberculosis” (Bioorg Med Chem Lett, 2017)
# Legend:
# [1] = molecular target: T1, O-acetylserine sulfhydrylase (Mycobacterium tuberculosis, UniProt P9WP55); experiment: Inhibition of hexahistidine-tagged recombinant Mycobacterium tuberculosis CysK1 expressed in Escherichia coli BL21(DE3) assessed as amount of cysteine produced using O-acetyl-L-serine as substrate incubated for 12 mins by acid-ninhydrin based spectrophotometric assay
# S-sulfocysteine synthase [2] = molecular target: T2, S-sulfocysteine synthase (Mycobacterium tuberculosis (strain ATCC 25618 / H37Rv), UniProt Q79FV4); experiment: Inhibition of hexahistidine-tagged recombinant Mycobacterium tuberculosis CysK2 expressed in Escherichia coli BL21(DE3) assessed as amount of S-sulfocysteine produced using […] as substrate incubated for 30 mins by acid-ninhydrin based spectrophotometric assay
# T2 sequence (Q79FV4 whole entry): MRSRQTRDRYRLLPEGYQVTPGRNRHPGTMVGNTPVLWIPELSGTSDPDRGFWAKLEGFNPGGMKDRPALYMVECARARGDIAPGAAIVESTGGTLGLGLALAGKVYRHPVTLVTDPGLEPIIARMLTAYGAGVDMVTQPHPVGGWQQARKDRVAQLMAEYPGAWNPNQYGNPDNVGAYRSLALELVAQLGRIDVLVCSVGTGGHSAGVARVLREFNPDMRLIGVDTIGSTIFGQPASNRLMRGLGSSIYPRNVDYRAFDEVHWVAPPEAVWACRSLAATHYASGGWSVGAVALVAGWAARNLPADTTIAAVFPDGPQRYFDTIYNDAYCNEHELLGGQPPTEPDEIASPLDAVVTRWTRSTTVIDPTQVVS
# [3] = molecular target: T1, O-acetylserine sulfhydrylase; experiment: Inhibition of hexahistidine-tagged recombinant Mycobacterium tuberculosis CysK1 expressed in Escherichia coli BL21(DE3) assessed as dissociation constant using PLP as substrate incubated for 5 mins by fluorescence analysis
# S-sulfocysteine synthase [4] = molecular target: T2, S-sulfocysteine synthase; experiment: Inhibition of hexahistidine-tagged recombinant Mycobacterium tuberculosis CysK2 expressed in Escherichia coli BL21(DE3) assessed as dissociation constant using PLP as substrate incubated for 5 mins by fluorescence analysis
# S-sulfocysteine synthase [5] = molecular target: T2, S-sulfocysteine synthase; experiment: Inhibition of hexahistidine-tagged recombinant Mycobacterium tuberculosis CysK2 expressed in Escherichia coli BL21(DE3) assessed as inhibition constant using […] as substrate by Lineweaver-Burk plot analysis
# [6] = molecular target: O-phosphoserine sulfhydrylase (Mycobacterium tuberculosis (strain ATCC 25618 / H37Rv), UniProt P9WP53); experiment: Inhibition of Mycobacterium tuberculosis CysM
# Chain of O-phosphoserine sulfhydrylase (P9WP53 whole entry): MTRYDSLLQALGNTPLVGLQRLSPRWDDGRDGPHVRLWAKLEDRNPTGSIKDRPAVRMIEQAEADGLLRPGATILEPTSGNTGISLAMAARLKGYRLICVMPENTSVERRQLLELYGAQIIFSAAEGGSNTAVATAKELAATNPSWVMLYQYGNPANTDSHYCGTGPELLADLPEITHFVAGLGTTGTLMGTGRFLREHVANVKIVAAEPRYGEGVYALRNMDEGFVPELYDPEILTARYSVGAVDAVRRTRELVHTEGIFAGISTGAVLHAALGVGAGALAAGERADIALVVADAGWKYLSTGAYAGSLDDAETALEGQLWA
SMILES,IC50 [1],IC50 (S-sulfocysteine synthase [2]),Kd [3],Kd (S-sulfocysteine synthase [4]),Ki (S-sulfocysteine synthase [5]),IC50 [6]
O=C(Nc1ccc(Br)cc1)Nc1ccc(C(=O)O)c(O)c1,29.4 µM,,,,,
O=C(Nc1ccc(Cl)c(Cl)c1)Nc1ccc(O)c(C(=O)O)c1,2.5 µM,29.9 µM,75.7 µM,,,
Cc1ccc(NC(=O)Nc2cccc(C(=O)O)c2)cc1,,,,148 µM,,
O=C(Nc1cccc(-c2ccccc2)c1)Nc1ccc(O)c(C(=O)O)c1,9.3 µM,10.3 µM,,102 µM,,
O=C(O)c1cccc(NS(=O)(=O)c2cccc(-c3ccc(Cl)c(Cl)c3)c2)c1,,,110 µM,,,
O=C(Nc1cccc(C(=O)O)c1)Nc1cccc(-c2ccccc2)c1,4.9 µM,6.6 µM,96.8 µM,14.9 µM,1.1 µM,
O=C(Nc1ccc(Br)cc1)Nc1cccc(C(=O)O)c1,,27.6 µM,,17.7 µM,,
COc1ccc(OC)c(NC(=O)Nc2ccccc2C(=O)O)c1,,,59.9 µM,,,
O=C(Nc1ccc(Cl)cc1)Nc1cccc(C(=O)O)c1,,13 µM,,16.9 µM,,
O=C(Nc1cccc(C(=O)O)c1)Nc1ccc(Cl)c(Cl)c1,11.2 µM,10.1 µM,241 µM,48.7 µM,,0.48 µM
O=C(Nc1cccc(-c2ccccc2)c1)Nc1ccc(C(=O)O)c(O)c1,21.2 µM,26.9 µM,,,,
O=C(Nc1cccc(-c2nnn[nH]2)c1)Nc1ccc(Cl)c(Cl)c1,,,,80.3 µM,,
